# How the values were obtained:
# Type in all cases: cell-based
# [1] = test system: Haemophilus influenzae ATCC10211; test: MIC, microbroth dilution (NCCLS); conditions: rifS strain, BHI Broth with NAD and hematin, 37° C., read-out: Antimicrobial activity (MIC)
# [2] = test system: Streptococcus pyogenes ATCC19615; test: MIC, microbroth dilution (NCCLS); conditions: rifS strain, THY Broth, 37° C., read-out: Antimicrobial activity (MIC)
# [3] = test system: Streptococcus pneumoniae ATCC6303; test: MIC, microbroth dilution (NCCLS); conditions: rifS strain, THY Broth with 1 mg/mL catalase, 5% CO2, 37° C., read-out: Antimicrobial activity (MIC)
# [4] = test system: Mycobacterium smegmatis ATCC700084; test: MIC, microbroth dilution (NCCLS); conditions: Mycolicibacterium smegmatis, rifS strain, Middlebrook Broth plus ADC Enrichment, 37° C., read-out: Antimicrobial activity (MIC)
# [5] = test system: Escherichia coli ATCC25922; test: MIC, microbroth dilution (NCCLS); conditions: rifS strain, Cation-Adjusted Mueller-Hinton Broth, 37° C., read-out: Antimicrobial activity (MIC)
# [6] = test system: Staphylococcus aureus EN1252a gyrA^S84L grlA^S80F; test: microbe, parasite or virus in culture; conditions: read-out: Antimicrobial activity (MIC)
# Experimental: (§1) Representative compounds were assayed for antimicrobial activity as follows: Minimum Inhibitory Concentrations (“MICs”) were determined by the microbroth dilution method as per NCCLS guidelines (National Committee for Clinical Laboratory Standards. 2000. Methods for dilution antimicrobial susceptibility tests for bacteria that grow aerobically, 5th ed. M7-A5. National Committee for Clinical Laboratory Standards, Wayne, Pa.), except that all growth incubations were conducted at 37° C. Bacterial cultures were tested in the following bacteriological media: S. aureus, S. epidermidis, and E. coli in Cation-Adjusted Mueller-Hinton Broth, S. pneumoniae in THY Broth supplemented with 1 mg/mL catalase under 5% CO2 atmosphere, S. pyogenes in THY Broth, E. faecalis in BHI Broth, H. influenzae in BHI Broth supplemented with 0.75 μL of 1 mg/mL NAD and 150 μL of 1 mg/ml hematin per 5 mL, and M. smegmatis in Middlebrook Broth plus ADC Enrichment.
# (§2) S. aureus ATCC 29213 RpoB^H418Y is a rifampin-resistant strain with a mutation in RNA polymerase, the biological target of rifamycin antibiotics. […] S. aureus EN1252a gyrA^S84L grlA^S80F is a quinolone-resistant strain due to double mutations to DNA gyrase and topoisomerase IV, the two biological targets for quinolone antibiotics.
# [7] = test system: Staphylococcus aureus ATCC29213 rpoB^H418Y; test: microbe, parasite or virus in culture; conditions: ATCC29213, read-out: Antimicrobial activity (MIC)
# Experimental: as §1, §2
# [8] = test system: Staphylococcus aureus ATCC29213 rpoB^D417Y; test: microbe, parasite or virus in culture; conditions: ATCC29213, read-out: Antimicrobial activity (MIC)
# Experimental: as §1, §2
# [9] = test system: Enterococcus faecalis ATCC29212; test: MIC, microbroth dilution (NCCLS); conditions: rifS strain, BHI Broth, 37° C., read-out: Antimicrobial activity (MIC)
# [10] = test system: Staphylococcus aureus ATCC29213; test: MIC, microbroth dilution (NCCLS); conditions: rifS strain, Cation-Adjusted Mueller-Hinton Broth, 37° C., read-out: Antimicrobial activity (MIC)
# [11] = test system: Staphylococcus epidermidis ATCC12228; test: MIC, microbroth dilution (NCCLS); conditions: rifS strain, Cation-Adjusted Mueller-Hinton Broth, 37° C., read-out: Antimicrobial activity (MIC)
compound,measurement,setting,value
"CO[C@H]1/C=C/O[C@@]2(C)Oc3c(C)c(O)c4c(c3C2=O)C(=O)C(N2CCC(NC3CCN(c5c(F)cc6c(=O)c(C(=O)O)cn(C7CC7)c6c5Cl)C3)CC2)=C(NC(=O)/C(C)=C\C=C\[C@H](C)[C@H](O)[C@@H](C)[C@@H](O)[C@@H](C)[C@H](OC(C)=O)[C@@H]1C)C4=O (mixture of isomers) [Example 29, (R/S)-3-{4-[1-(3-Carboxy-8-chloro-1-cyclopropyl-6-fluoro-4-oxo-1,4-dihydroquinolin-7-yl)-pyrrolidin-3-ylamino]-piperidin-1-yl}rifamycin S]",MIC,[1],0.125 to 2 mg/L
same,MIC,[2],0.008 to 0.063 mg/L
same,MIC,[3],0.008 to 0.125 mg/L
same,MIC,[4],0.5 to 64 mg/L
same,MIC,[5],0.125 to 8 mg/L
same,MIC,[6],0.004 to 0.5 mg/L
same,MIC,[7],0.06 to 16 mg/L
same,MIC,[8],0.06 to 32 mg/L
same,MIC,[9],2 to 32 mg/L
same,MIC,[10],0.004 to 0.5 mg/L
same,MIC,[11],0.008 to 0.063 mg/L
"COc1c(N2CCC(NC3CCN(C4=C5NC(=O)/C(C)=C\C=C\[C@H](C)[C@H](O)[C@@H](C)[C@@H](O)[C@@H](C)[C@H](OC(C)=O)[C@H](C)[C@@H](OC)/C=C/O[C@@]6(C)Oc7c(C)c(O)c(c(c7C6=O)C4=O)C5=O)CC3)C2)c(F)cc2c(=O)c(C(=O)O)cn(C3CC3)c12 (mixture of isomers) [Example 30, (R/S)-3-{4-[1-(3-Carboxy-1-cyclopropyl-6-fluoro-8-methoxy-4-oxo-1,4-dihydroquinolin-7-yl)-pyrrolidin-3-ylamino]-piperidin-1-yl}rifamycin S]",MIC,[1],0.125 to 2 mg/L
same,MIC,[2],0.008 to 0.063 mg/L
same,MIC,[3],0.008 to 0.125 mg/L
same,MIC,[4],0.5 to 64 mg/L
same,MIC,[5],0.125 to 8 mg/L
same,MIC,[6],0.004 to 0.5 mg/L
same,MIC,[7],0.06 to 16 mg/L
same,MIC,[8],0.06 to 32 mg/L
same,MIC,[9],2 to 32 mg/L
same,MIC,[10],0.004 to 0.5 mg/L
same,MIC,[11],0.008 to 0.063 mg/L
"COc1c(N2CCCC(NC3CCN(C4=C5NC(=O)/C(C)=C\C=C\[C@H](C)[C@H](O)[C@@H](C)[C@@H](O)[C@@H](C)[C@H](OC(C)=O)[C@H](C)[C@@H](OC)/C=C/O[C@@]6(C)Oc7c(C)c(O)c(c(c7C6=O)C4=O)C5=O)CC3)C2)c(F)cc2c(=O)c(C(=O)O)cn(C3CC3)c12 (mixture of isomers) [Example 32, (R/S)-3-{4-[1-(3-Carboxy-1-cyclopropyl-6-fluoro-8-methoxy-4-oxo-1,4-dihydroquinolin-7-yl)-piperidin-3-ylamino]-piperidin-1-yl}rifamycin S]",MIC,[1],0.125 to 2 mg/L
same,MIC,[2],0.008 to 0.063 mg/L
same,MIC,[3],0.008 to 0.125 mg/L
same,MIC,[4],0.5 to 64 mg/L
same,MIC,[5],0.125 to 8 mg/L
same,MIC,[6],0.004 to 0.5 mg/L
same,MIC,[7],0.06 to 16 mg/L
same,MIC,[8],0.06 to 32 mg/L
same,MIC,[9],2 to 32 mg/L
same,MIC,[10],0.004 to 0.5 mg/L
same,MIC,[11],0.008 to 0.063 mg/L
COc1c(N2CCC(N(C)C3CCN(C4=C5NC(=O)/C(C)=C\C=C\[C@H](C)[C@H](O)[C@@H](C)[C@@H](O)[C@@H](C)[C@H](OC(C)=O)[C@H](C)[C@@H](OC)/C=C/O[C@@]6(C)Oc7c(C)c(O)c(c(c7C6=O)C4=O)C5=O)CC3)C2)c(F)cc2c(=O)c(C(=O)O)cn(C3CC3)c12 (mixture of isomers) [Example 34],MIC,[1],0.125 to 2 mg/L
same,MIC,[2],0.008 to 0.063 mg/L
same,MIC,[3],0.008 to 0.125 mg/L
same,MIC,[4],0.5 to 64 mg/L
same,MIC,[5],0.125 to 8 mg/L
same,MIC,[6],0.004 to 0.5 mg/L
same,MIC,[7],0.06 to 16 mg/L
same,MIC,[8],0.06 to 32 mg/L
same,MIC,[9],2 to 32 mg/L
same,MIC,[10],0.004 to 0.5 mg/L
same,MIC,[11],0.008 to 0.063 mg/L
"CO[C@H]1/C=C/O[C@@]2(C)Oc3c(C)c(O)c4c(c3C2=O)C(=O)C(N2CCC(NCC3CCN(c5c(F)cc6c(=O)c(C(=O)O)cn(C7CC7)c6c5Cl)C3)CC2)=C(NC(=O)/C(C)=C\C=C\[C@H](C)[C@H](O)[C@@H](C)[C@@H](O)[C@@H](C)[C@H](OC(C)=O)[C@@H]1C)C4=O (mixture of isomers) [Example 36, (R/S)-3-{4-[1-(3-Carboxy-8-chloro-1-cyclopropyl-6-fluoro-4-oxo-1,4-dihydroquinolin-7-yl)-(pyrrolidin-3-ylmethyl)-amino]-piperidin-1-yl}rifamycin S]",MIC,[1],0.125 to 2 mg/L
same,MIC,[2],0.008 to 0.063 mg/L
same,MIC,[3],0.008 to 0.125 mg/L
same,MIC,[4],0.5 to 64 mg/L
same,MIC,[5],0.125 to 8 mg/L
same,MIC,[6],0.004 to 0.5 mg/L
same,MIC,[7],0.06 to 16 mg/L
same,MIC,[8],0.06 to 32 mg/L
same,MIC,[9],2 to 32 mg/L
same,MIC,[10],0.004 to 0.5 mg/L
same,MIC,[11],0.008 to 0.063 mg/L
CO[C@H]1/C=C/O[C@@]2(C)Oc3c(C)c(O)c4c(c3C2=O)C(=O)C(N2CCC(NCC3CCN(c5nc6c(cc5F)c(=O)c(C(=O)O)cn6-c5ccc(F)cc5F)C3)CC2)=C(NC(=O)/C(C)=C\C=C\[C@H](C)[C@H](O)[C@@H](C)[C@@H](O)[C@@H](C)[C@H](OC(C)=O)[C@@H]1C)C4=O (mixture of isomers) [Example 37],MIC,[1],0.125 to 2 mg/L
same,MIC,[2],0.008 to 0.063 mg/L
same,MIC,[3],0.008 to 0.125 mg/L
same,MIC,[4],0.5 to 64 mg/L
same,MIC,[5],0.125 to 8 mg/L
same,MIC,[6],0.004 to 0.5 mg/L
same,MIC,[7],0.06 to 16 mg/L
same,MIC,[8],0.06 to 32 mg/L
same,MIC,[9],2 to 32 mg/L
same,MIC,[10],0.004 to 0.5 mg/L
same,MIC,[11],0.008 to 0.063 mg/L

# Reference: patent US7247634B2, “Rifamycin derivatives effective against drug-resistant microbes” (Cumbre Pharmaceuticals Inc., priority 2004, dated 2007)
